These results are taken from patent EP0937459A2, “Pharmaceutical compositions for the treatment of ischemic brain damage” (Sumitomo Pharmaceuticals Company, Limited, priority 1998, dated 1999).

Test [1] deals with cultured glial cells. The conditions noted are these: Kempski et al., Stroke 19, 385-392, 1988; cited from earlier work.
Test [2] has as its system ischemic animal models. The conditions noted are these: ischemic animal models in vivo; literature; cited from earlier work.
Test [3] concerns transient ischemic rats. The experiment in a line: Infarcted area in rats with transient ischemia (2 h middle cerebral artery occlusion, then reperfusion). The note with it: 1 mg/ml. The format is in vivo. How it is done: Male rats were anesthetized with halothane mixed with nitrous oxide. The cervical region was dissected to ligate the left external carotid artery and the left common carotid artery. Occlusion was induced for 2 hours in the control section at the origin of the middle cerebral artery by inserting a nylon thread through the left internal carotid artery to reach the left middle deutocerebral artery. Reperfusion through the middle cerebral artery was established by withdrawing the nylon thread. The test compound was intravenously given to the animals in a volume of 1 ml/kg at 30 minutes after the occlusion. As the test compound, a solution of Compound 1 (1 mg/ml) in 8% polyethylene glycol #400 was used. For control, the vehicle (8% polyethylene glycol #400) containing no active compound was used. The animals were decapitated 22 hours after reperfusion and the brain was removed. Coronal sections of 2 mm thick were prepared in the ipsilateral hemisphere from 3 mm anterior to 5 mm posterior of the bregma. The sections were stained with 2,3,5-triphenyltetrazolium chloride for photographing. The photographs were scanned with a scanner (GT-8000, Epson) for computer-based image analysis (software used, Ep Scan Mac 1. 40). The rate of the infarcted area of each section in the left hemisphere was analyzed by a computer (software used, NIH image 1.59). The pharmacological effect was evaluated by mean percentage of the infarcted areas in the five sections obtained in one rat.
Compound 2 was elucidated for the effect on the infarcted area in a manner similar to that of Example 1. The test compound was intraperitoneally given 30 minutes before the occlusion to the animals in a volume of 1 ml/kg. As the test compound, a solution of Compound 2 (1 mg/ml) in 8% polyethylene glycol #400 was used. For control, the vehicle (8% polyethylene glycol #400) containing no active compound was used.
Compound 3 was elucidated for the effect on the infarcted area in a manner similar to that of Example 1. […]

Test [4] relates to rats with transient ischemia. The experiment in a line: Brain edema (brain water content) in rats with transient ischemia. Type of test: in vivo. How it is done:
Male rats were anesthetized with halothane mixed with nitrous oxide. The cervical region was dissected to ligate the left external carotid artery and the left common carotid artery. Occlusion was induced for 2 hours in the control section at the origin of the middle cerebral artery by inserting a nylon thread through the left internal carotid artery to reach the left middle deutocerebral artery. Reperfusion through the middle cerebral artery was established by withdrawing the nylon thread. The test compound was intravenously given to the animals an hour after the occlusion in a volume of 1 ml/kg. As the test compound, a solution of Compound 1 (0.3 mg/ml or 1 mg/ml) in 8% polyethylene glycol #400 was used. For control, the vehicle alone (8% polyethylene glycol #400) containing no active compound was used. The animals were decapitated 4 hours after reperfusion and the brain was removed. Coronal sections of 4 mm thick were prepared in the ipsilateral hemisphere from 1 mm anterior to 3 mm posterior of the bregma. After the wet weight (W) of each section was weighed, the section was dried in an oven at 110°C for 24 hours and then its dry weight (D) was weighed. The brain water content (WC) was calculated according to the following equation. WC = (W - D) / W x 100 [formula] In the normal control group, the brain water content was 79.9 ± 0.1% (mean ± standard error in 15 cases); however, by reperfusion following the occlusion, the brain water content in the control group increased to 83.3 ± 0.3% (mean + standard error in 15 cases).
Compound 2 was elucidated for the effect on brain edema in a manner similar to that of Example 4. The test compound was intravenously given immediately after the reperfusion to the animals in a volume of 1 ml/kg. As the test compound, a solution of Compound 2 (1 mg/ml) in 8% polyethylene glycol #400 was used. For control, the vehicle (8% polyethylene glycol #400) containing no active compound was used.
Compound 3 was elucidated for the effect on brain edema in a manner similar to that of Example 4. The test compound was intravenously given immediately after the reperfusion to the animals in a volume of 1 ml/kg. As the test compound, a solution of Compound 3 (0.3 mg/ml or 1 mg/ml) in 8% polyethylene glycol #400 was used. For control, the vehicle alone (8% polyethylene glycol #400) containing no active compound was used.

For the compound `N=C(N)NC(=O)c1nc(Cl)c(N)nc1N` [amiloride], the “cell swelling induced by acid loading” value in test [1] is listed as “attenuated cell swelling”.
With `CC(=O)Nc1nnc(S(N)(=O)=O)s1` [acetazolamide], the “cell swelling induced by acid loading” value in test [1] is recorded as “cell swelling was prevented”. For the same compound, in test [2], the “effect of preventing cerebral edema” value is on record as “no significant effect of preventing cerebral edema”.
Regarding `Cn1c(C(=O)N=C(N)N)cc2ccccc21` [Compound 1, 1-methyl-2-indoloylguanidine methanesulfonate], the “mean infarcted area observed in each section” value in test [3] (1 ml/kg intravenously 30 minutes after the occlusion, 22 hours after reperfusion, mean ± standard error in 8 cases, control group 47.9 ± 3.6%, p<5%) is reported as 35.4 ± 3.1%. The brain water content in test [4] (0.3 mg/kg intravenously an hour after the occlusion, 4 hours after reperfusion, mean ± standard error in 16 cases, normal control 79.9 ± 0.1%, control group 83.3 ± 0.3%, p<1%) turned out to be 82.6 ± 0.3%; in test [4] (1 mg/kg intravenously an hour after the occlusion, 4 hours after reperfusion, mean ± standard error in 16 cases, normal control 79.9 ± 0.1%, control group 83.3 ± 0.3%, p<1%), 82.2 ± 0.3%.
Take `N=C(N)NC(=O)c1cc2c(Cl)ccc3c2n1CCCCC3=O` [Compound 3, N-(aminoiminomethyl)-5,6,7,8-tetrahydro-11-chloro-8-oxo-4H-azocino[3,2,1-hi]indole-2-carboxamide methanesulfonate monohydrate]: the “infarcted area observed in each section” value in test [3] (1 ml/kg intraperitoneally immediately after the occlusion, mean ± standard error in 13 cases, control group 55.4 ± 2.1%, p<5%) was found to be 45.2 ± 2.2%. The brain water content is recorded as 82.4 ± 0.3% in test [4] (0.3 mg/kg intravenously immediately after the reperfusion, mean ± standard error in 9 cases, normal control 79.2 ± 0.2%, control group 82.8 ± 0.3%, tendency) and 81.7 ± 0.4% in test [4] (1 mg/kg intravenously immediately after the reperfusion, mean ± standard error in 11 cases, normal control 79.2 ± 0.2%, control group 82.8 ± 0.3%, tendency).
As to `Cc1cccc2c1cc(C(=O)N=C(N)N)n2C` [Compound 2, 1,4-dimethyl-2-indoloylguanidine methanesulfonate], the “infarcted area observed in each section” value in test [3] (1 ml/kg intraperitoneally 30 minutes before the occlusion, mean ± standard error in 5 cases, control group 49.5 ± 4.1%, p<1%) turned out to be 26.6 ± 3.1%. The same compound yielded a brain water content in test [4] (1 mg/ml, 1 ml/kg intravenously immediately after the reperfusion, mean ± standard error in 11 cases, normal control 78.7 ± 0.1%, control group 81.9 ± 0.4%, no significant effect) of 82.0 ± 0.4%.
